# Results reported in PubChem BioAssay (NCI).
#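 In this assay, cells in 96-well plates receive the compound at five concentrations for 48 hours. Endpoints are linearly interpolated between the surrounding concentrations. TGI: total growth inhibition.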
# How the values were obtained:
# Assay in all cases: NCI tumour cell line growth inhibition, 48 h
# HT29 colon = test system: HT29 colon
# ACHN renal = test system: ACHN renal
# CAKI-1 renal = test system: CAKI-1 renal
# UACC-257 melanoma = test system: UACC-257 melanoma
# SW-620 colon = test system: SW-620 colon
# KM12 colon = test system: KM12 colon
# UACC-62 melanoma = test system: UACC-62 melanoma
# SK-MEL-28 melanoma = test system: SK-MEL-28 melanoma
# HL-60(TB) leukemia = test system: HL-60(TB) leukemia
# MALME-3M melanoma = test system: MALME-3M melanoma
# K-562 leukemia = test system: K-562 leukemia
# SF-295 CNS = test system: SF-295 CNS
# RXF-631 renal = test system: RXF-631 renal
# U251 CNS = test system: U251 CNS
# HOP-62 NSCLC = test system: HOP-62 NSCLC
# SNB-75 CNS = test system: SNB-75 CNS
# MOLT-4 leukemia = test system: MOLT-4 leukemia
# EKVX NSCLC = test system: EKVX NSCLC
# NCI-H460 lung = test system: NCI-H460 lung
# NCI-H23 lung = test system: NCI-H23 lung
# HCC-2998 colon = test system: HCC-2998 colon
# 786-0 renal = test system: 786-0 renal
# DMS 273 small cell lung = test system: DMS 273 small cell lung
# A549 NSCLC = test system: A549 NSCLC
# IGROV1 ovarian = test system: IGROV1 ovarian
# XF 498 CNS = test system: XF 498 CNS
# SR leukemia = test system: SR leukemia
# COLO 205 colon = test system: COLO 205 colon
# UO-31 renal = test system: UO-31 renal
# DMS 114 small cell lung = test system: DMS 114 small cell lung
# SNB-19 CNS = test system: SNB-19 CNS
# RXF 393 renal = test system: RXF 393 renal
# OVCAR-4 ovarian = test system: OVCAR-4 ovarian
# LOX IMVI melanoma = test system: LOX IMVI melanoma
# HOP-92 NSCLC = test system: HOP-92 NSCLC
# KM20L2 colon = test system: KM20L2 colon
# SK-MEL-2 melanoma = test system: SK-MEL-2 melanoma
# M14 melanoma = test system: M14 melanoma
# NCI-H522 lung = test system: NCI-H522 lung
# SF-268 CNS = test system: SF-268 CNS
# HCT-15 colon = test system: HCT-15 colon
# SK-MEL-5 melanoma = test system: SK-MEL-5 melanoma
# OVCAR-3 ovarian = test system: OVCAR-3 ovarian
# DLD-1 colon = test system: DLD-1 colon
# SNB-78 CNS = test system: SNB-78 CNS
# HCT-116 colon = test system: HCT-116 colon
# SK-OV-3 ovarian = test system: SK-OV-3 ovarian
# RPMI-8226 leukemia = test system: RPMI-8226 leukemia
# TK-10 renal = test system: TK-10 renal
# M19-MEL melanoma = test system: M19-MEL melanoma
# CCRF-CEM leukemia = test system: CCRF-CEM leukemia
# SF-539 CNS = test system: SF-539 CNS
# NCI-H226 lung = test system: NCI-H226 lung
# NCI/ADR-RES ovarian = test system: NCI/ADR-RES ovarian
# P388 leukemia = test system: P388 leukemia
# A498 renal = test system: A498 renal
# MCF7 breast = test system: MCF7 breast
# HOP-18 NSCLC = test system: HOP-18 NSCLC
# SN12C renal = test system: SN12C renal
# OVCAR-8 ovarian = test system: OVCAR-8 ovarian
# LXFL 529 NSCLC = test system: LXFL 529 NSCLC
# OVCAR-5 ovarian = test system: OVCAR-5 ovarian
smiles,measurement,setting,value
CC1CC2C3CC(F)C4=CC(=O)C=CC4(C)C3(F)C(O)CC2(C)C1(O)C(=O)CO (stereo not drawn),TGI,HT29 colon,> 100 µM
same,TGI,ACHN renal,> 100 µM
same,TGI,CAKI-1 renal,> 100 µM
same,TGI,UACC-257 melanoma,> 100 µM
same,TGI,SW-620 colon,> 100 µM
same,TGI,KM12 colon,> 100 µM
same,TGI,UACC-62 melanoma,> 100 µM
same,TGI,SK-MEL-28 melanoma,> 100 µM
same,TGI,HL-60(TB) leukemia,> 100 µM
same,TGI,MALME-3M melanoma,> 100 µM
same,TGI,K-562 leukemia,> 100 µM
same,TGI,SF-295 CNS,> 100 µM
same,TGI,RXF-631 renal,> 100 µM
same,TGI,U251 CNS,> 100 µM
same,TGI,HOP-62 NSCLC,> 100 µM
same,TGI,SNB-75 CNS,> 100 µM
same,TGI,MOLT-4 leukemia,> 100 µM
same,TGI,EKVX NSCLC,> 100 µM
same,TGI,NCI-H460 lung,> 100 µM
same,TGI,NCI-H23 lung,> 100 µM
same,TGI,HCC-2998 colon,> 100 µM
same,TGI,786-0 renal,> 100 µM
same,TGI,DMS 273 small cell lung,> 100 µM
same,TGI,A549 NSCLC,> 100 µM
same,TGI,IGROV1 ovarian,> 100 µM
same,TGI,XF 498 CNS,> 100 µM
same,TGI,SR leukemia,> 100 µM
same,TGI,COLO 205 colon,> 100 µM
same,TGI,UO-31 renal,> 100 µM
same,TGI,DMS 114 small cell lung,> 100 µM
same,TGI,SNB-19 CNS,> 100 µM
same,TGI,RXF 393 renal,> 100 µM
same,TGI,OVCAR-4 ovarian,> 100 µM
same,TGI,LOX IMVI melanoma,> 100 µM
same,TGI,HOP-92 NSCLC,> 100 µM
same,TGI,KM20L2 colon,> 100 µM
same,TGI,SK-MEL-2 melanoma,> 100 µM
same,TGI,M14 melanoma,> 100 µM
same,TGI,NCI-H522 lung,> 100 µM
same,TGI,SF-268 CNS,> 100 µM
same,TGI,HCT-15 colon,> 100 µM
same,TGI,SK-MEL-5 melanoma,> 100 µM
same,TGI,OVCAR-3 ovarian,> 100 µM
same,TGI,DLD-1 colon,> 100 µM
same,TGI,SNB-78 CNS,> 100 µM
same,TGI,HCT-116 colon,> 100 µM
same,TGI,SK-OV-3 ovarian,> 100 µM
same,TGI,RPMI-8226 leukemia,> 100 µM
same,TGI,TK-10 renal,> 100 µM
same,TGI,M19-MEL melanoma,> 100 µM
same,TGI,CCRF-CEM leukemia,> 100 µM
same,TGI,SF-539 CNS,> 100 µM
same,TGI,NCI-H226 lung,> 100 µM
C=C1CC(OC)(C(O)C(=O)N[C@H]2OCO[C@H]3C2O[C@H](C[C@@H](CO)OC)C(C)(C)C3OC)O[C@H](C)[C@@H]1C (stereo partly drawn),TGI,HT29 colon,< 0.00932 µM
same,TGI,CAKI-1 renal,< 0.00932 µM
same,TGI,UACC-257 melanoma,< 0.00932 µM
same,TGI,NCI/ADR-RES ovarian,0.016 µM
same,TGI,SW-620 colon,< 0.00932 µM
same,TGI,UACC-62 melanoma,< 0.00932 µM
same,TGI,P388 leukemia,> 93.2 µM
same,TGI,K-562 leukemia,> 93.2 µM
same,TGI,SF-295 CNS,< 0.00932 µM
same,TGI,A498 renal,< 0.00932 µM
same,TGI,MCF7 breast,> 93.2 µM
same,TGI,U251 CNS,< 0.00932 µM
same,TGI,SNB-75 CNS,< 0.00932 µM
same,TGI,MOLT-4 leukemia,> 93.2 µM
same,TGI,NCI-H460 lung,< 0.00932 µM
same,TGI,A549 NSCLC,< 0.00932 µM
same,TGI,IGROV1 ovarian,< 0.00932 µM
same,TGI,HOP-18 NSCLC,< 0.00932 µM
same,TGI,COLO 205 colon,< 0.00932 µM
same,TGI,SNB-19 CNS,< 0.00932 µM
same,TGI,RXF 393 renal,< 0.00932 µM
same,TGI,OVCAR-4 ovarian,< 0.00932 µM
same,TGI,LOX IMVI melanoma,< 0.00932 µM
same,TGI,KM20L2 colon,< 0.00932 µM
same,TGI,SK-MEL-5 melanoma,< 0.00932 µM
same,TGI,OVCAR-3 ovarian,< 0.00932 µM
same,TGI,DLD-1 colon,< 0.00932 µM
same,TGI,HCT-116 colon,< 0.00932 µM
same,TGI,SK-OV-3 ovarian,< 0.00932 µM
same,TGI,RPMI-8226 leukemia,< 0.00932 µM
same,TGI,SN12C renal,0.0114 µM
same,TGI,M19-MEL melanoma,< 0.00932 µM
same,TGI,CCRF-CEM leukemia,0.0532 µM
same,TGI,NCI-H226 lung,< 0.00932 µM
C/C=C/C=C/[C@H]1Cc2cc(O)cc(O)c2O1,TGI,HT29 colon,> 100 µM
same,TGI,ACHN renal,> 100 µM
same,TGI,CAKI-1 renal,> 100 µM
same,TGI,UACC-257 melanoma,> 100 µM
same,TGI,SW-620 colon,> 100 µM
same,TGI,KM12 colon,> 100 µM
same,TGI,UACC-62 melanoma,> 100 µM
same,TGI,SK-MEL-28 melanoma,> 100 µM
same,TGI,HL-60(TB) leukemia,92.8 µM
same,TGI,MALME-3M melanoma,> 100 µM
same,TGI,K-562 leukemia,> 100 µM
same,TGI,SF-295 CNS,> 100 µM
same,TGI,RXF-631 renal,> 100 µM
same,TGI,A498 renal,> 100 µM
same,TGI,U251 CNS,> 100 µM
same,TGI,HOP-62 NSCLC,> 100 µM
same,TGI,OVCAR-8 ovarian,> 100 µM
same,TGI,SNB-75 CNS,> 100 µM
same,TGI,MOLT-4 leukemia,> 100 µM
same,TGI,EKVX NSCLC,> 100 µM
same,TGI,NCI-H460 lung,> 100 µM
same,TGI,NCI-H23 lung,> 100 µM
same,TGI,786-0 renal,> 100 µM
same,TGI,DMS 273 small cell lung,> 100 µM
same,TGI,A549 NSCLC,> 100 µM
same,TGI,LXFL 529 NSCLC,> 100 µM
same,TGI,IGROV1 ovarian,> 100 µM
same,TGI,XF 498 CNS,> 100 µM
same,TGI,SR leukemia,> 100 µM
same,TGI,HOP-18 NSCLC,> 100 µM
same,TGI,COLO 205 colon,> 100 µM
same,TGI,UO-31 renal,> 100 µM
same,TGI,DMS 114 small cell lung,> 100 µM
same,TGI,SNB-19 CNS,> 100 µM
same,TGI,RXF 393 renal,> 100 µM
same,TGI,OVCAR-4 ovarian,> 100 µM
same,TGI,LOX IMVI melanoma,> 100 µM
same,TGI,HOP-92 NSCLC,> 100 µM
same,TGI,KM20L2 colon,> 100 µM
same,TGI,SK-MEL-2 melanoma,> 100 µM
same,TGI,OVCAR-5 ovarian,> 100 µM
same,TGI,M14 melanoma,> 100 µM
same,TGI,NCI-H522 lung,> 100 µM
same,TGI,SF-268 CNS,> 100 µM
same,TGI,HCT-15 colon,> 100 µM
same,TGI,SK-MEL-5 melanoma,> 100 µM
same,TGI,OVCAR-3 ovarian,> 100 µM
same,TGI,DLD-1 colon,> 100 µM
same,TGI,SNB-78 CNS,> 100 µM
same,TGI,HCT-116 colon,> 100 µM
same,TGI,SK-OV-3 ovarian,> 100 µM
same,TGI,TK-10 renal,> 100 µM
same,TGI,SN12C renal,> 100 µM
same,TGI,M19-MEL melanoma,> 100 µM
same,TGI,CCRF-CEM leukemia,> 100 µM
same,TGI,SF-539 CNS,> 100 µM
